According to patent US10278973B2, “Hydroxyl purine compounds and use thereof” (GUANGDONG RAYNOVENT BIOTECH CO., LTD., priority 2015, dated 2019):
Like-named read-outs stand apart in the source and are kept apart here.

Molecular target: T1, Full length human PDE2A protease (Homo sapiens, UniProt O00408)
T1 construct: Full length human PDE2A protease; GST (N); host or cells: insect Sf9 cells (baculovirus)
Test: In vitro evaluation of PDE2 phosphodiesterase inhibitory activity (Transcreener AMP2/GMP2 fluorescence polarization)
Assay type: biochemical
Experimental: In Vitro Evaluation of PDE2 Phosphodiesterase Inhibitory Activity Experimental objectives: To detect the concentration of AMP/GMP produced in the reaction system by measuring the fluorescence intensity of the fluorescent dye AlexaFluor 633 substituted on AMP/GMP antibody and to calculate the PDE2 phosphodiesterase inhibitory IC50 value of the test compound. Test buffer solution: 10 mM Tris-HCl, pH 7.5, 5 mM MgCl2, 0.01% Brij 35, 1 mM DTT, and 1% DMSO. Enzyme: Full length human PDE2A protease expressed and recombined in insect Sf9 cells with baculovirus using N-terminal GST tag […] Transcreener® AMP^2/GMP^2 antibody, AMP2/GMP2 AlexaFluor 633 fluorescent dye The enzyme solution was prepared with freshly prepared buffer solution and then added to the reaction wells. The DMSO solution of the test compound was added by Echo550 non-contact nanoscale sonicate pipetting system and preincubated for 10 minutes at room temperature. The reaction was initiated by addition of substrate (1 μM cGMP) and allowed to react for one hour at room temperature. The detection system (Transcreener® AMP^2/GMP^2 antibody, AMP2/GMP2 AlexaFluor 633 fluorescent dye) was then added and reacted for 90 minutes at room temperature before fluorescence polarization was detected using Ex/Em 620/688. The intensity of fluorescence polarization was converted to nM concentration by the AMP/GMP standard curve and then relative inhibition of enzyme activity relative to DMSO blank was calculated. IC50 values and curves were calculated using the Prism software package (GraphPad Software, San Diego Calif., USA)

[1] = recombinant full length human PDE2A, substrate 1 μM cGMP, 1 hour at room temperature, read-out: PDE2 phosphodiesterase inhibitory activity

T1 sequence (O00408 whole entry): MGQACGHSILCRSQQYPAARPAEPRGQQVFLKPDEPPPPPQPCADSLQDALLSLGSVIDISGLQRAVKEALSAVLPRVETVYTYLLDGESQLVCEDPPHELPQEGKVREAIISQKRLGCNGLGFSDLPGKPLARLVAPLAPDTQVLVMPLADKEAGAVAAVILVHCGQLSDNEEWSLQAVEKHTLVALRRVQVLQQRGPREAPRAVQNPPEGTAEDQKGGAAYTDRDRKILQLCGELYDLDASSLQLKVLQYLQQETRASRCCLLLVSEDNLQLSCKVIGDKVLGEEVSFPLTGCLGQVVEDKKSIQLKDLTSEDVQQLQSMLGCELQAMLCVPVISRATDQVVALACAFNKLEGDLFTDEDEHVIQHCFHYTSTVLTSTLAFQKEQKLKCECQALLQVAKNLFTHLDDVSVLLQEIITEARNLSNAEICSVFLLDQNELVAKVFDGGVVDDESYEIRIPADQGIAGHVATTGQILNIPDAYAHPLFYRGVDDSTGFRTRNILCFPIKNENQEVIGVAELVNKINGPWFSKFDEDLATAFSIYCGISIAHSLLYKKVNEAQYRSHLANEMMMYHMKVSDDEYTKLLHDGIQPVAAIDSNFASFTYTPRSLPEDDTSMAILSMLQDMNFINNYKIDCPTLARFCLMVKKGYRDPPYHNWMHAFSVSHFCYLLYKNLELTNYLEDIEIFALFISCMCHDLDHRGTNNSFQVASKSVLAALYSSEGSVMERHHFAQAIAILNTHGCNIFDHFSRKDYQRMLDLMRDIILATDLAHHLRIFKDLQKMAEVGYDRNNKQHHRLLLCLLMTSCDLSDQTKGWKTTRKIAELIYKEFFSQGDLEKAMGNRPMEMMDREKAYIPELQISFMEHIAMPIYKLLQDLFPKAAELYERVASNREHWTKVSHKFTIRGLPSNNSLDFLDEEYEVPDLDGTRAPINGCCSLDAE

SMILES	IC50 [1]	IC50
Cc1cc(CCCCn2c(=O)c3c(ncn3C)n(C)c2=O)n(C)n1 (single isomer, unassigned) [Example 14 Isomer 1, 1-(4-(1,3-dimethyl-1H-pyrazol-5-yl)butyl)-3,7-dimethyl-1H-purine-2,6(3H,7H)-dione]	10 to 50 µM	
Cn1nnnc1CCCCCn1c(=O)c2c(ncn2C)n(C)c1=O (single isomer, unassigned) [Example 40 Isomer 1, 3,7-Dimethyl-1-(5-(1-methyl-1H-tetrazol-5-yl)pentyl)-1H-purine-(3H,7H)-dione]	10 to 50 µM	
Cn1nnc(CCCCCn2c(=O)c3c(ncn3C)n(C)c2=O)n1 (single isomer, unassigned) [Example 40 Isomer 2, 3,7-Dimethyl-1-(5-(1-methyl-2H-tetrazol-5-yl)pentyl)-1H-purine-(3H,7H)-dione]	10 to 50 µM	
Cc1cc(CCCCn2c(=O)c3c(ncn3C(F)F)n(C)c2=O)on1 (single isomer, unassigned) [Example 49 Isomer 1, 7-(Difluoromethyl)-3-methyl-1-(4-(3-methylisoxazol-5-yl)butyl)-1H-purine-2,6(3H,7H)-dione]	10 to 50 µM	
CCc1cc(CCn2c(=O)c3c(ncn3C)n(C)c2=O)nn1C [Example 11 Product 2, 1-(2-(5-Ethyl-1-methyl-1H-pyrazol-3-yl)ethyl)-3,7-dimethyl-1H-purine-2,6(3H,7H)-dione]	10 to 50 µM	
Cc1cc(CCCCn2c(=O)c3c(ncn3C)n(C)c2=O)[nH]n1 [Example 12, 3,7-Dimethyl-1-(4-(3-methyl-1H-pyrazol-5-yl)butyl)-1H-purine-2,6(3H,7H)-dione]	10 to 50 µM	
Cc1cc(CCCCn2c(=O)c3c(ncn3C)n(C)c2=O)no1 [Example 20, 3,7-Dimethyl-1-(4-(5-methylisoxazol-3-yl)butyl)-1H-purine-2,6(3H,7H)-dione]	10 to 50 µM	
CC(C)c1oncc1Cn1c(=O)c2c(ncn2C)n(C)c1=O [Example 22, 1-((5-Isopropylisoxazol-4-yl)methyl)-3,7-dimethyl-1H-purine-2,6(3H,7H)-dione]	10 to 50 µM	
Cc1cc(CC2CCCC(n3c(=O)c4c(ncn4C)n(C)c3=O)C2)on1 (stereo not shown) [Example 28]	1 to 10 µM	
Cc1nc(C)c(Cn2c(=O)c3c(ncn3C)n(C)c2=O)s1 [Example 29, 1-((2,4-Dimethylthiazol-5-yl)methyl)-3,7-dimethyl-1H-purine-2,6(3H,7H)-dione]	10 to 50 µM	
Cn1cnc2c1c(=O)n(CCCCc1cn[nH]n1)c(=O)n2C [Example 34, 1-(4-(2H-1,2,3-triazol-4-yl)butyl)-3,7-dimethyl-1H-purine-2,6(3H,7H)-dione]	10 to 50 µM	
Cn1ncc(CCCCn2c(=O)c3c(ncn3C)n(C)c2=O)n1 [Example 35, 3,7-Dimethyl-1-(4-(2-methyl-2H-1,2,3-triazol-4-yl)butyl)-1H-purine-(3H,7H)-dione]	10 to 50 µM	
Cn1cnc2c1c(=O)n(CCCCc1nn[nH]n1)c(=O)n2C [Example 37, 1-(4-(2H-tetrazol-5-yl)butyl)-3,7-dimethyl-1H-purine-2,6(3H,7H)-dione]	10 to 50 µM	
Cn1nnc(CCCCn2c(=O)c3c(ncn3C)n(C)c2=O)n1 [Example 38 Isomer 1, 3,7-Dimethyl-1-(4-(2-methyl-2H-tetrazol-5-yl)butyl)-1H-purine-(3H,7H)-dione]	10 to 50 µM	
Cn1cnc2c1c(=O)n(CCCCCc1nn[nH]n1)c(=O)n2C [Example 39, 1-(5-(2H-tetrazol-5-yl)pentyl)-3,7-dimethyl-1H-purine-2,6(3H,7H)-dione]	10 to 50 µM	
Cn1cnc2c1c(=O)n(CCCc1c[nH]c3ccccc13)c(=O)n2C [Example 41]	1 to 10 µM	
Cn1cnc2c1c(=O)n(CCCCc1cc3ccccc3o1)c(=O)n2C [Example 42, 1-(4-(Benzofuran-2-yl)butyl)-3,7-dimethyl-1H-purine-2,6(3H,7H)-dione]	1 to 10 µM	
Cn1cnc2c1c(=O)n(CCCc1nc3ccccc3s1)c(=O)n2C [Example 43, 1-(3-(Benzo[d]thiazol-2-yl)propyl)-3,7-dimethyl-1H-purine 2,6(3H,7H)-dione]	10 to 50 µM	
Cn1cnc2c1c(=O)n(CCCc1[nH]nc3c1CCCC3)c(=O)n2C [Example 44]	10 to 50 µM	
Cc1cc(-c2ccc(Cn3c(=O)c4c(ncn4C)n(C)c3=O)cc2)on1 [Example 45, 3,7-Dimethyl-1-[4-(3-methylisoxazol-5-yl)-benzyl]-3,7-dihydro-purine-2,6-dione]	1 to 10 µM	
COc1ccc(Cn2c(=O)c3c(ncn3C)n(C)c2=O)cn1 [Example 48, 1-((6-Methoxypyridin-3-yl)methyl)-3,7-dimethyl-1H-purine-2,6(3H,7H)-dione]		10 to 50 µM
CCn1cnc2c1c(=O)n(CCCCc1cc(C)no1)c(=O)n2C [Example 50, 7-Ethyl-3-methyl-1-(4-(3-methylisoxazol-5-yl)butyl)-1H-purine-2,6(3H,7H)-dione]	1 to 10 µM	

Second part, led by results:

IC50 [1]	SMILES	IC50
10 to 50 µM	Cc1cc(CCCCn2c(=O)c3c(ncn3CC(F)(F)F)n(C)c2=O)on1 [Example 51, 3-Methyl-1-(4-(3-methylisoxazol-5-yl)butyl)-7-(2,2,2-trifluoroethyl)-1H-purine-2,6(3H,7H)-dione]	
1 to 10 µM	CCCn1cnc2c1c(=O)n(CCCCc1cc(C)no1)c(=O)n2C [Example 52, 3-Methyl-1-(4-(3-methylisoxazol-5-yl)butyl)-7-propyl-1H-purine-2,6(3H,7H)-dione]	
10 to 50 µM	Cc1cc(CCCCn2c(=O)c3c(ncn3C(C)C)n(C)c2=O)on1 [Example 54, 7-Isopropyl-3-methyl-1-(4-(3-methylisoxazol-5-yl)butyl)-1H-purine-2,6(3H,7H)-dione]	
1 to 10 µM	CCCCn1cnc2c1c(=O)n(CCCCc1cc(C)no1)c(=O)n2C [Example 55, 7-Butyl-3-methyl-1-(4-(3-methylisoxazol-5-yl)butyl)-1H-purine-2,6(3H,7H)-dione]	
1 to 10 µM	Cc1cc(CCCCn2c(=O)c3c(ncn3CC3CC3)n(C)c2=O)on1 [Example 56, 7-(Cyclopropylmethyl)-3-methyl-1-(4-(3-methylisoxazol-5-yl)butyl)-1H-purine-2,6(3H,7H)-dione]	
1 to 10 µM	Cc1noc(C)c1Cn1c(=O)c2c(ncn2CC2CC2)n(C)c1=O [Example 57, 7-(Cyclopropylmethyl)-1-((3,5-dimethylisoxazol-4-yl)methyl)-3-methyl-1H-purine-2,6-(3H,7H)-dione]	
1 to 10 µM	CC(C)c1oncc1Cn1c(=O)c2c(ncn2CC2CC2)n(C)c1=O [Example 58]	
1 to 10 µM	Cc1cc(CCCCn2c(=O)c3c(ncn3CC(C)C)n(C)c2=O)on1 [Example 60, 7-Isobutyl-3-methyl-1-(4-(3-methylisoxazol-5-yl)butyl)-1H-purine-2,6(3H,7H)-dione]	
10 to 50 µM	Cc1cc(CCCCn2c(=O)c3c(ncn3CC3(C)COC3)n(C)c2=O)on1 [Example 61, 3-Methyl-1-(4-(3-methylisoxazol-5-yl)butyl)-7-((3-methyloxetan-3-yl)methyl)-1H-purine-2,6(3H,7H)-dione]	
10 to 50 µM	Cc1cc(CCCCn2c(=O)c3cc[nH]c3n(C)c2=O)on1 [Example 66, 1-Methyl-3-(4-(3-methylisoxazol-5-yl)butyl)-1H-pyrrolo[2,3-d]pyrimidine-2,4(3H,7H)-dione]	
10 to 50 µM	Cc1cc(CCCCn2c(=O)c3ccn(C)c3n(C)c2=O)on1 [Example 67, 1,7-Dimethyl-3-(4-(3-methylisoxazol-5-yl)butyl)-1H-pyrrolo[2,3-d]pyrimidine-2,4(3H,7H)-dione]	
10 to 50 µM	Cc1cc(CCCCn2c(=O)c3nn(C)cc3n(C)c2=O)on1 [Example 69, 2,4-Dimethyl-6-[4-(3-methylisoxazol-5-yl)-butyl]-2,4-dihydro-pyrazolo[4,3-d]pyrimidine-5,7-dione]	
10 to 50 µM	Cc1cc(CCCCn2c(=O)c3c(cnn3CC(F)(F)F)n(C)c2=O)on1 [Example 75, 4-Methyl-6-(4-(3-methylisoxazol-5-yl)butyl)-1-(2,2,2-trifluoroethyl)-pyrazolo[4,3-d]pyrimidine-5,7-dione]	
10 to 50 µM	Cc1cc(CCCCn2c(=O)c3c(cnn3CC3CC3)n(C)c2=O)on1 [Example 81, 1-(Cyclopropylmethyl)-4-methyl-6-(4-(3-methylisoxazol-5-yl)butyl)-pyrazolo[4,3-d]pyrimidin-5,7-dione]	
10 to 50 µM	Cc1cc(CCCCn2c(=O)c3ccccc3n(C)c2=O)on1 [Example 83, 1-Methyl-3-(4-(3-methylisoxazol-5-yl)butyl)quinazoline-2,4(1H,3H)-dione]	
